Laboratory results taken from the supplement of paper PMC10307832.

Columns and labels:
Test in all cases: relative viability (nuclei count vs DMSO), 5 days (fraction); higher = more cells survive
KN-93 + Pemetrexed = compound: CN(C/C=C/C1=CC=C(C=C1)Cl)CC2=CC=CC=C2N(CCO)S(=O)(=O)C3=CC=C(C=C3)OC [KN-93] + Nc1nc2[nH]cc(CCc3ccc(C(=O)N[C@@H](CCC(=O)O)C(=O)O)cc3)c2c(=O)[nH]1 [Pemetrexed] (partner 0.2 µM)
In short: (§1)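 Medians of duplicate plates are given as relative viability. That measure is the nuclei count in treated wells divided by the count in vehicle wells. Counts were taken on 4× images of lung cancer cell lines in 1536-well plates, 5 days after pin-tool dosing the day after seeding with one drug alone or a fixed anchor-drug dose plus five library-drug doses (not always all listed) in √10 steps.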

KN-93 + Bortezomib = compound: CN(C/C=C/C1=CC=C(C=C1)Cl)CC2=CC=CC=C2N(CCO)S(=O)(=O)C3=CC=C(C=C3)OC [KN-93] + CC(C)C[C@H](NC(=O)[C@H](Cc1ccccc1)NC(=O)c1cnccn1)B(O)O [Bortezomib] (partner 0.002 µM)
In short: as §1

KN-93 + OSI-027 = compound: CN(C/C=C/C1=CC=C(C=C1)Cl)CC2=CC=CC=C2N(CCO)S(=O)(=O)C3=CC=C(C=C3)OC [KN-93] + COc1cccc2cc(-c3nc([C@H]4CC[C@H](C(=O)O)CC4)n4ncnc(N)c34)[nH]c12 [OSI-027] (partner 0.5 µM)
In short: as §1

KN-93 + Palbociclib = compound: CN(C/C=C/C1=CC=C(C=C1)Cl)CC2=CC=CC=C2N(CCO)S(=O)(=O)C3=CC=C(C=C3)OC [KN-93] + CC(=O)c1c(C)c2cnc(Nc3ccc(N4CCNCC4)cn3)nc2n(C2CCCC2)c1=O [Palbociclib] (partner 0.5 µM)
In short: as §1

KN-93 + Tozasertib = compound: CN(C/C=C/C1=CC=C(C=C1)Cl)CC2=CC=CC=C2N(CCO)S(=O)(=O)C3=CC=C(C=C3)OC [KN-93] + Cc1cc(Nc2cc(N3CCN(C)CC3)nc(Sc3ccc(NC(=O)C4CC4)cc3)n2)n[nH]1 [Tozasertib] (partner 0.1 µM)
In short: as §1

Cell Line | relative viability (KN-93 + Pemetrexed; first compound 0.08 µM) | relative viability (KN-93 + Pemetrexed; first compound 0.253 µM) | relative viability (KN-93 + Pemetrexed; first compound 2.53 µM) | relative viability (KN-93 + Pemetrexed; first compound 8 µM) | relative viability (KN-93 + Bortezomib; first compound 0.08 µM) | relative viability (KN-93 + Bortezomib; first compound 0.253 µM) | relative viability (KN-93 + Bortezomib; first compound 2.53 µM) | relative viability (KN-93 + Bortezomib; first compound 8 µM) | relative viability (KN-93 + OSI-027; first compound 0.08 µM) | relative viability (KN-93 + OSI-027; first compound 0.253 µM) | relative viability (KN-93 + OSI-027; first compound 2.53 µM) | relative viability (KN-93 + OSI-027; first compound 8 µM) | relative viability (KN-93 + Palbociclib; first compound 0.08 µM) | relative viability (KN-93 + Palbociclib; first compound 0.253 µM) | relative viability (KN-93 + Palbociclib; first compound 2.53 µM) | relative viability (KN-93 + Palbociclib; first compound 8 µM) | relative viability (KN-93 + Tozasertib; first compound 0.08 µM) | relative viability (KN-93 + Tozasertib; first compound 0.253 µM) | relative viability (KN-93 + Tozasertib; first compound 2.53 µM) | relative viability (KN-93 + Tozasertib; first compound 8 µM)
A-427 | 1.05 | 1.01 | 0.941 | 0.776 | 1.04 | 0.99 | 0.982 | 0.852 | 0.507 | 0.621 | 0.462 | 0.265 | 0.555 | 0.533 | 0.511 | 0.41 | 0.206 | 0.193 | 0.172 | 0.165
NCI-H1355 | 1.11 | 0.918 | 1.27 | 0.972 | 1.11 | 1.11 | 1.3 | 0.895 | 0.405 | 0.295 | 0.41 | 0.246 | 0.427 | 0.342 | 0.436 | 0.332 | 0.51 | 0.451 | 0.481 | 0.31
SK-LU-1 | 0.967 | 1.19 | 1.16 | 0.688 | 1.58 | 1.02 | 1.59 | 0.591 | 0.334 | 0.328 | 0.343 | 0.224 | 0.439 | 0.451 | 0.41 | 0.314 | 0.337 | 0.349 | 0.322 | 0.278
NCI-H1650 | 0.338 | 0.427 | 0.372 | 0.34 | 0.218 | 0.196 | 0.208 | 0.203 | 0.574 | 0.596 | 0.496 | 0.465 | 0.377 | 0.323 | 0.391 | 0.269 | 0.39 | 0.339 | 0.382 | 0.309
NCI-H1993 | 0.474 | 0.535 | 0.618 | 0.58 | 0.836 | 1.02 | 1.2 | 0.523 | 0.544 | 0.607 | 0.565 | 0.573 | 0.628 | 0.563 | 0.595 | 0.498 | 0.563 | 0.552 | 0.593 | 0.519
HCC-827 | 0.243 | 0.286 | 0.257 | 0.286 | 1.01 | 1.11 | 0.972 | 0.872 | 0.729 | 0.777 | 0.991 | 0.565 | 0.591 | 0.492 | 0.845 | 0.422 | 0.445 | 0.492 | 0.404 | 0.337
H3255 | 0.558 | 0.54 | 0.544 | 0.484 | 0.906 | 0.865 | 0.91 | 0.578 | 0.615 | 0.515 | 0.619 | 0.431 | 0.322 | 0.303 | 0.3 | 0.266 | 0.539 | 0.864 | 0.82 | 0.433
LCLC-103H | 0.455 | 0.443 | 0.515 | 0.475 | 0.968 | 1.07 | 1.16 | 0.949 | 0.446 | 0.455 | 0.356 | 0.309 | 0.472 | 0.458 | 0.49 | 0.518 | 0.427 | 0.501 | 0.434 | 0.376
EKVX | 0.382 | 0.346 | 0.454 | 0.244 | 0.81 | 1.33 | 1.26 | 0.389 | 0.536 | 0.75 | 0.743 | 0.552 | 0.433 | 0.34 | 0.365 | 0.265 | 0.378 | 0.48 | 0.369 | 0.301
NCI-H838 | 0.258 | 0.278 | 0.25 | 0.214 | 0.735 | 0.919 | 1.16 | 0.796 | 0.443 | 0.328 | 0.445 | 0.41 | 0.222 | 0.182 | 0.216 | 0.212 | 0.256 | 0.257 | 0.252 | 0.235
NCI-H647 | 0.176 | 0.181 | 0.159 | 0.174 | 0.712 | 1.16 | 1.63 | 0.986 | 0.695 | 0.643 | 0.856 | 0.533 | 0.346 | 0.364 | 0.349 | 0.473 | 0.31 | 0.299 | 0.0549 | 0.196
NCI-H1651 | 0.611 | 0.701 | 0.567 | 0.511 | 0.976 | 1.03 | 0.987 | 0.805 | 0.588 | 0.73 | 0.749 | 0.423 | 0.511 | 0.536 | 0.582 | 0.488 | 0.647 | 0.627 | 0.906 | 0.509
